Here are results for one compound from US20220241308A1, “NEURONAL FUNCTION MODULATING AGENT” (University of Tsukuba, priority 2019, published 2022).

Assay type in all cases: cell-based
In test [1] the test system is MAPK14 (mitogen-activated protein kinase 14). Kind of test: Gene expression experiment (real-time PCR) in SH-SY5Y cells: MAPK14. Conditions: 24 h. The procedure:
(§1) SH-SY5Y cells were seeded in 100 mm-cell dishes (BD Biocoat) at concentrations of 3.7×10^5 cells/mL (10 mL/dish) and cultured for 24 h at 37° C. and 5% CO2. Culture medium used was F12/DMEM (Gibco) supplemented with 1% non-essential amino acids (Gibco), 15% FBS (Bio West), and 1% penicillin/streptomycin (Lonza). After 24 h, the culture medium was completely removed with an aspirator, 10 mL of culture medium Opti-MEM(Gibco) was added to each dish, and the cells were cultured for 24 h at 37° C. and 5% CO2. RNA was extracted from the culture cells and analyzed for the expression of genes described below by real-time PCR (designated as “Control” in FIGS. 2 to 8).
(§2) RNA extraction was performed using ISOGEN Reagent (Nippon Gene Co., Ltd.) in accordance with the protocol recommended by Nippo n Gene Co., Ltd. (see URL: https://www.nippongene.com/siyaku/product/extraction/tds/tds_isogen-rna-dna-protein.pdf). Real-time PCR was performed according to the protocol recommended by Thermo Fisher Scientific using a reagent kit for TaqMan Real-Time PCR (Thermo Fisher Scientific) (see URL: https://assets.thermofisher.com/TFS-Assets/LSG/manuals/4304449_TaqManPCRMM_UG.pdf).
(§3) 24 h after seeding 100 mm-cell dishes (BD Biocoat) with SH-SY5Y cells, the culture medium was completely removed with an aspirator, amyloid β protein (Beta-Amyloid 1-42, AnaSpec) was mixed with Opti-MEM (Gibco) so that the final concentration was 5 μM, 10 mL of the mixture was added to each dish, the cells were cultured for 24 h at 37° C. and 5% CO2, and RNA was extracted. Except for performing the procedure described above, gene expression was analyzed as described above (designated as “Aβ” in FIGS. 2 to 8).
(§4) 24 h after seeding 100 mm-cell dishes (BD Biocoat) with SH-SY5Y cells, the culture medium was completely removed with an aspirator, Sample 1 was mixed with culture medium Opti-MEM(Gibco) so that the final concentration was 12.56 μM, 9,990 μL of the mixture was added to each dish and allowed to stand for 10 min, amyloid β protein (Beta-Amyloid 1-42, AnaSpec) was mixed with Opti-MEM (Gibco) so that the final concentration was […], 10 μL of the mixture was added to each well, the cells were cultured for 24 h at 37° C. and 5% CO2, and RNA was extracted. Except for performing the procedure described above, Gene expression was analyzed as described above (designated as “Aβ+M3,5G” in FIGS. 2 to 8).
(§5) Except that Sample 2 was used instead of Sample 1, gene expression was analyzed as described above (designated as “Aβ+M” in FIGS. 2 to 8).
(§6) Except that Sample 3 was used instead of Sample 1, gene expression was analyzed as described above (designated as “Aβ+M3G” in FIGS. 2 to 8). […]
(In general: In qPCR the cycle at which signal appears reflects the starting amount.)

For test [2], the system named is MAP2K4 (mitogen-activated protein kinase 4). The test is described as follows: Gene expression experiment (real-time PCR) in SH-SY5Y cells: MAP2K4. Conditions: for expression of MAP2K4: 24 h. The procedure:
as §1, §2, §3, §4, §5
(§7) Except that Sample 3 was used instead of Sample 1, gene expression was analyzed as described above (designated as “Aβ+M3G” in FIGS. 2 to 8).
(§8) 24 h after seeding 100 mm-cell dishes (BD Biocoat) with SH-SY5Y cells, the culture medium was completely removed with an aspirator, 10 mL of culture medium Opti-MEM(Gibco) mixed with Sample 1 was added to each dish, the cells were cultured for 24 h at 37° C. and 5% CO2, and RNA was extracted. Except for performing the procedure described above, gene expression was analyzed as described above (designated as “M3,5G” in FIGS. 2 to 8).

In test [3] the test system is AKT1 (AKT serine/threonine kinase 1). The test is described as follows: Gene expression experiment (real-time PCR) in SH-SY5Y cells: AKT1. The following applies: for expression of AKT1: 24 h. The procedure: as §1, §2, §3, §4, §5, §7, §8
Test [4] concerns MAPK8 (mitogen-activated protein kinase 8). The test is described as follows: Gene expression experiment (real-time PCR) in SH-SY5Y cells: MAPK8. Conditions: 24 h. The procedure:
as §1, §2, §3, §4, §5, §6

The mark [5] stands for this setting: 12.56 μM, amyloid β protein-treated cells, compared to “Aβ”.
The mark [6] stands for this setting: Sample 1 alone, no amyloid β, compared to “Control”.
The mark [7] stands for this setting: 12.56 μM, amyloid β protein-treated cells, compared to “Control”.
[8] abbreviates: amyloid β protein-treated cells, 12.56 μM, ranked against malvidin and malvidin-3-glucoside.

For `COc1cc(-c2[o+]c3cc(O)cc(OC4OC(CO)C(O)C(O)C4O)c3cc2OC2OC(CO)C(O)C(O)C2O)cc(OC)c1O` (stereo not shown) [M3,5G, Malvidin-3,5-diglucoside chloride], the “expression of MAPK14” value in test [1] (setting [5]) is reported as “significantly high”; in test [1] (setting [6]), “significantly increased”. The “expression of MAP2K4” value in test [2] (setting [5]) was “significantly high”; in test [2] (setting [7]), “significantly high”; in test [2] (setting [6]), “significantly increased”. The “activity in increasing the expression of MAP2K4” value in test [2] (setting [8]) is recorded as “highest activity”. Besides, the “expression of AKT1” value is recorded as “significantly high” in test [3] (setting [5]), “significantly high” in test [3] (setting [7]) and “significantly increased” in test [3] (setting [6]). The “activity in increasing the expression of AKT1” value in test [3] (setting [8]) is recorded as “highest activity”. Also, the “expression of MAPK8” value in test [4] (setting [5]) was “significantly high”; in test [4] (setting [7]), “significantly high”; in test [4] (setting [6]), “significantly increased”.
